Several values for one entry are separate records, joined by “and”; a condition that tells them apart may be missing. Identical values can stand only once. Blank lines part the entries; values can stand above or below the compound they belong to.
Assays:
Hela = assay: MTT antiproliferative assay, HeLa; type: cell-based, human; conditions: 72 h incubation, mean ± SD of three independent experiments
Description: Table 2 IC50 (μM) ± SD of tested compounds in different cell lines after 72 h incubation. | column: Cell Line, IC50 (µM) ± SD / Hela

[1] = DPPH radical scavenging activity; conditions: sample 1 mM; for DPPH: 30 min, gallic acid equivalents, mean (±SD), triplicate
MDA-MB-231 = assay: MTT antiproliferative assay, MDA-MB-231; type: cell-based, human; conditions: MDA-MB-231, 72 h incubation, mean ± SD of three independent experiments
MCF-10A = assay: MTT cytotoxicity assay, non-cancer MCF-10A; type: cell-based, human; conditions: 72 h incubation, mean ± SD of three independent experiments
[2] = Ferric reducing antioxidant power (FRAP); conditions: sample 1 mM, 30 min, gallic acid equivalents, mean (±SD), triplicate
Description: (§1) Table 3 Antioxidant activity.

[3] = ABTS radical scavenging activity; conditions: sample 1 mM, 30 min, gallic acid equivalents, mean (±SD), triplicate
Description: as §1

Jurkat = assay: MTT antiproliferative assay, Jurkat; type: cell-based, human; conditions: 72 h incubation, mean ± SD of three independent experiments
MCF-7 = assay: MTT antiproliferative assay, MCF-7; type: cell-based, human; conditions: mean ± SD of three independent experiments
HCT116 = assay: MTT antiproliferative assay, HCT116; type: cell-based, human; conditions: mean ± SD of three independent experiments
[4] = Homo sapiens, MCF7, 72 h, MCF-7, 72 h incubation
[5] = Homo sapiens, HCT-116, 72 h, HCT116, 72 h incubation
[6] = Homo sapiens, MCF7, MCF-7, 72 h incubation
[7] = Homo sapiens, HCT-116, HCT116, 72 h incubation

SMILES: O=C(/C=C/c1c[nH]c2ccccc12)c1ccccc1F [11a, (2E)-1-(2″-Fluorophenyl)-3-(1′H-indol-3′-yl)prop-2-en-1-one]
IC50 (Hela): 41.7 ± 0.2 µM | DPPH [1]: 20.5 (±4.0) µmol GAE/mmol | IC50 (MDA-MB-231): 51.4 ± 3.2 µM | IC50 (MCF-10A): 89.1 ± 2.4 µM | FRAP [2]: 62.2 (±9.9) µmol GAE/mmol | ABTS [3]: 150.6 (±4.7) µmol GAE/mmol | IC50 (Jurkat): < 8.3 µM and 7.6 µM | IC50 (MCF-7; MCF-7, 72 h incubation): 37.1 ± 0.4 µM | IC50 (HCT116; HCT116, 72 h incubation): 31.8 ± 2.1 µM

SMILES: Cn1cc(/C=C/C(=O)c2ccccc2F)c2ccccc21 [11b, (2E)-1-(2″-Fluorophenyl)-3-(1′-metyl-1′H-indol-3′-yl)prop-2-en-1-one]
IC50 (Hela): 57.9 ± 0.4 µM | DPPH [1]: 18.9 (±2.3) µmol GAE/mmol | IC50 (MDA-MB-231): > 100 µM | IC50 (MCF-10A): > 100 µM | FRAP [2]: 47.2 (±1.0) µmol GAE/mmol | ABTS [3]: 5.7 (±2.7) µmol GAE/mmol | IC50 (Jurkat): 32.4 ± 1.2 µM | IC50 (MCF-7; MCF-7, 72 h incubation): 47.5 ± 4.3 µM | IC50 (HCT116; HCT116, 72 h incubation): 41.5 ± 1.7 µM

SMILES: COn1cc(/C=C/C(=O)c2ccccc2F)c2ccccc21 [11c, (2E)-1-(2″-Fluorophenyl)-3-(1′-methoxy-1′H-indol-3′-yl)prop-2-en-1-one]
IC50 (Hela): 19.2 ± 5.7 µM | DPPH [1]: 23.2 (±11.9) µmol GAE/mmol | IC50 (MDA-MB-231): 21.1 ± 3.9 µM | IC50 (MCF-10A): 67 ± 2.9 µM | FRAP [2]: 27.4 (±0.9) µmol GAE/mmol | ABTS [3]: 41.4 (±6.7) µmol GAE/mmol | IC50 (Jurkat): < 8.3 µM and 5.9 µM | IC50 (MCF-7; MCF-7, 72 h incubation): 20 ± 7.9 µM | IC50 (HCT116; HCT116, 72 h incubation): 37.9 ± 2.7 µM

SMILES: COc1[nH]c2ccccc2c1/C=C/C(=O)c1ccccc1F [11d, (2E)-1-(2″-Fluorophenyl)-3-(2′-methoxy-1′H-indol-3′-yl)prop-2-en-1-one]
IC50 (Hela): > 100 µM | IC50 (MDA-MB-231): 95.5 ± 2.7 µM | IC50 (MCF-10A): 98 ± 1.3 µM | IC50 (Jurkat): 11.4 ± 1.9 µM | IC50 (MCF-7; MCF-7, 72 h incubation): 32 ± 1.2 µM | IC50 (HCT116; HCT116, 72 h incubation): 45.5 ± 2.4 µM

SMILES: CCOc1[nH]c2ccccc2c1/C=C/C(=O)c1ccccc1F [11e, (2E)-3-(2′-ethoxy-1′H-indol-3′-yl)-1-(2″-fluorophenyl)prop-2-en-1-one]
IC50 (Hela): 75.2 ± 4.1 µM | IC50 (MDA-MB-231): 72.2 ± 5.4 µM | IC50 (MCF-10A): 94 ± 4.6 µM | IC50 (Jurkat): < 8.3 µM and 8.3 µM | IC50 (MCF-7; MCF-7, 72 h incubation): 30.3 ± 2.2 µM | IC50 (HCT116; HCT116, 72 h incubation): 40.1 ± 0.6 µM

SMILES: CC(C)Oc1[nH]c2ccccc2c1/C=C/C(=O)c1ccc(F)cc1 [11g, (2E)-1-(4″-Fluorophenyl)-3-(2′-isopropoxy-1′H-indol-3′-yl)prop-2-en-1-one]
IC50 (Hela): 34.2 ± 0.1 µM | IC50 (MDA-MB-231): 33.3 ± 0.3 µM | IC50 (MCF-10A): 41.8 ± 1.5 µM | IC50 (Jurkat): 36.7 ± 4.9 µM | IC50 (MCF-7; MCF-7, 72 h incubation): 17.1 ± 2.3 µM | IC50 (HCT116; HCT116, 72 h incubation): 31.7 ± 1.7 µM

SMILES: CCCCOc1[nH]c2ccccc2c1/C=C/C(=O)c1ccccc1F [11h, (2E)-3-(2′-butoxy-1′H-indol-3′-yl)-1-(2″-fluorophenyl)prop-2-en-1-one]
IC50 (Hela): 48.2 ± 1 µM | IC50 (MDA-MB-231): 36.3 ± 2.1 µM | IC50 (MCF-10A): 65.5 ± 3.7 µM | IC50 (Jurkat): 35.9 ± 1.8 µM | IC50 (MCF-7; MCF-7, 72 h incubation): 13.8 ± 3.5 µM | IC50 (HCT116; HCT116, 72 h incubation): 31 ± 2.9 µM

SMILES: CC(C)COc1[nH]c2ccccc2c1/C=C/C(=O)c1ccc(F)cc1 [11i, (2E)-3-(2′-isobutoxy-1′H-indol-3′-yl)-1-(4″-fluorophenyl)prop-2-en-1-one]
IC50 (Hela): 54.6 ± 3.6 µM | IC50 (MDA-MB-231): 42.9 ± 0.4 µM | IC50 (MCF-10A): 93.3 ± 3.4 µM | IC50 (Jurkat): 40.1 ± 3.2 µM | IC50 (MCF-7; MCF-7, 72 h incubation): 30.7 ± 0.6 µM | IC50 (HCT116; HCT116, 72 h incubation): 33.8 ± 0.1 µM

SMILES: COCC(C)Oc1[nH]c2ccccc2c1/C=C/C(=O)c1ccccc1F (stereo not shown) [11j, (2E)-1-(2-fluorophenyl)-3-{2-[(1-methoxypropan-2-yl)oxy]-1H-indol-3-yl}prop-2-en-1-one]
IC50 (Hela; Homo sapiens, HeLa, 72 h): 50 ± 1.8 µM | IC50 (MDA-MB-231; Homo sapiens): 51.2 ± 4.1 µM | IC50 (MCF-10A; Homo sapiens, MCF-10A, 72 h): 76.5 ± 1.1 µM | IC50 (Jurkat; Homo sapiens): 40.4 ± 2.1 µM | IC50 (MCF-7; [4]): 26.2 ± 0.5 µM | IC50 (HCT116; [5]): 32.4 ± 1.3 µM

SMILES: O=C(/C=C/c1c(OCCO)[nH]c2ccccc12)c1ccccc1F [11k, (2E)-1-(2-fluorophenyl)-3-[2-(2-hydroxyethoxy)-1H-indol-3-yl]prop-2-en-1-one]
IC50 (Hela; Homo sapiens, HeLa, 72 h): 52.9 ± 1.6 µM | IC50 (MDA-MB-231; Homo sapiens): 64.5 ± 4.7 µM | IC50 (MCF-10A; Homo sapiens, MCF-10A, 72 h): 94.7 ± 2.6 µM | IC50 (Jurkat; Homo sapiens): 37.8 ± 0.9 µM | IC50 (MCF-7; [4]): 38.1 ± 3.3 µM | melting point: 140 to 143 °C | IC50 (HCT116; [5]): 39.4 ± 1.5 µM

SMILES: Cn1cc(C(=O)/C=C/c2ccc(O)cc2)c2ccccc21 [17b, (2E)-3-(4-hydroxyphenyl)-1-(1-methyl-1H-indol-3-yl)prop-2-en-1-one]
DPPH [1]: 20.7 (±6.6) µmol GAE/mmol | IC50 (MCF-10A; Homo sapiens): 22.8 ± 0.4 µM | FRAP [2]: 156.2 (±1.1) µmol GAE/mmol | ABTS [3]: 218.9 (±5.6) µmol GAE/mmol | IC50 (MCF-7; [6]): 50.3 ± 0.6 µM | melting point: 236 to 239 °C | IC50 (HCT116; [7]): > 100 µM

SMILES: Cn1cc(C(=O)/C=C/c2ccc(O)c(O)c2)c2ccccc21 [18b, (2E)-3-(3,4-dihydroxyphenyl)-1-(1-methyl-1H-indol-3-yl)prop-2-en-1-one]
IC50 (Hela; Homo sapiens): 6.7 ± 0.8 µM | DPPH [1]: 589.1 (±8.9) µmol GAE/mmol | IC50 (MCF-10A; Homo sapiens): 7.8 ± 0.3 µM | FRAP [2]: 564.8 (±2.2) µmol GAE/mmol | ABTS [3]: 487.3 (±43.9) µmol GAE/mmol | IC50 (MCF-7; [6]): 37.4 ± 2.2 µM | melting point: 210 to 214 °C | IC50 (HCT116; [7]): 7.1 ± 0.7 µM

SMILES: COc1cc(/C=C/C(=O)c2cn(C)c3ccccc23)ccc1O [19b, (2E)-3-(4-hydroxy-3-methoxyphenyl)-1-(1-methyl-1H-indol-3-yl)prop-2-en-1-one]
IC50 (Hela; Homo sapiens): 34.9 ± 1.3 µM | DPPH [1]: 225.6 (±14.7) µmol GAE/mmol | IC50 (MCF-10A; Homo sapiens): 28.9 ± 0.8 µM | FRAP [2]: 262.2 (±14.2) µmol GAE/mmol | ABTS [3]: 410.7 (±28.9) µmol GAE/mmol | IC50 (MCF-7; [6]): 69.8 ± 1.1 µM | melting point: 170 to 172 °C

SMILES: O=C(O)/C=C/c1ccc(O)c(O)c1 [caffeic acid, reference compound]
DPPH activity [1]: 690.7 ± 36.6 GAE/mmol | DPPH [1]: 690.7 (±36.6) µmol GAE/mmol | FRAP [2]: 500.0 (±33.5) µmol GAE/mmol | ABTS [3]: 586.0 (±32.8) µmol GAE/mmol

SMILES: O=C(O)/C=C/c1ccc(O)cc1 [p -coumaric acid, p-coumaric acid, reference compound]
DPPH [1]: 23.0 (±3.1) µmol GAE/mmol | FRAP [2]: 105.2 (±4.2) µmol GAE/mmol | ABTS [3]: 278.8 (±11.1) µmol GAE/mmol

Second part, led by results:

IC50 (Hela; Homo sapiens, HeLa, 72 h): 31.4 ± 2 µM | IC50 (MDA-MB-231; Homo sapiens): 39.6 ± 2.1 µM | IC50 (MCF-7; [4]): 47.9 ± 0.2 µM | melting point: 197 to 200 °C
SMILES: O=C(/C=C/c1ccc(O)cc1)c1c[nH]c2ccccc12 [17a, (2E)-3-(4-hydroxyphenyl)-1-(1H-indol-3-yl)prop-2-en-1-one]
DPPH [1]: 16.0 (±1.1) µmol GAE/mmol | IC50 (MCF-10A; Homo sapiens, MCF-10A, 72 h): 28.6 ± 0.5 µM | FRAP [2]: 161.6 (±5.7) µmol GAE/mmol | ABTS [3]: 227.6 (±5.4) µmol GAE/mmol

IC50 (Hela; Homo sapiens, HeLa, 72 h): 39.8 ± 1.6 µM | IC50 (MDA-MB-231; Homo sapiens): > 100 µM | IC50 (MCF-7; [4]): > 100 µM | melting point: 213 to 215 °C
SMILES: COn1cc(C(=O)/C=C/c2ccc(O)cc2)c2ccccc21 [17c, (2E)-3-(4-hydroxyphenyl)-1-(1-methoxy-1H-indol-3-yl)prop-2-en-1-one]
DPPH [1]: 13.6 (±0.9) µmol GAE/mmol | IC50 (MCF-10A; Homo sapiens, MCF-10A, 72 h): > 100 µM | FRAP [2]: 134.1 (±6.7) µmol GAE/mmol | ABTS [3]: 209.0 (±6.6) µmol GAE/mmol

IC50 (MDA-MB-231; Homo sapiens): 39.3 ± 1.9 µM | IC50 (MCF-7; [4]): 42.3 ± 3.3 µM | melting point: 212 to 215 °C | IC50 (HCT116; [5]): 29.8 ± 0.7 µM
SMILES: O=C(/C=C/c1ccc(O)c(O)c1)c1c[nH]c2ccccc12 [18a, (2E)-3-(3,4-dihydroxyphenyl)-1-(1H-indol-3-yl)prop-2-en-1-one]
DPPH [1]: 520.1 (±6.9) µmol GAE/mmol | IC50 (MCF-10A; Homo sapiens, MCF-10A, 72 h): 11.5 ± 1.4 µM | FRAP [2]: 480.9 (±28.8) µmol GAE/mmol | ABTS [3]: 401.2 (±39.2) µmol GAE/mmol

melting point: 155 to 156 °C
SMILES: COc1cc(/C=C/C(=O)c2cn(OC)c3ccccc23)ccc1O [19c, (2E)-3-(4-hydroxy-3-methoxyphenyl)-1-(1-methoxy-1H-indol-3-yl)prop-2-en-1-one]
DPPH [1]: 207.7 (±8.6) µmol GAE/mmol | FRAP [2]: 296.2 (±10.4) µmol GAE/mmol | ABTS [3]: 456.0 (±24.6) µmol GAE/mmol
